Where two headings read alike, the source gives them in different places. Values belong to the compound of their own block, whether it stands above or below them.
Experiments:
[1] = molecular target: T1, SIRT2 (Homo sapiens, UniProt Q8IXJ6); conditions: cited from earlier work
T1 sequence (Q8IXJ6 1-389): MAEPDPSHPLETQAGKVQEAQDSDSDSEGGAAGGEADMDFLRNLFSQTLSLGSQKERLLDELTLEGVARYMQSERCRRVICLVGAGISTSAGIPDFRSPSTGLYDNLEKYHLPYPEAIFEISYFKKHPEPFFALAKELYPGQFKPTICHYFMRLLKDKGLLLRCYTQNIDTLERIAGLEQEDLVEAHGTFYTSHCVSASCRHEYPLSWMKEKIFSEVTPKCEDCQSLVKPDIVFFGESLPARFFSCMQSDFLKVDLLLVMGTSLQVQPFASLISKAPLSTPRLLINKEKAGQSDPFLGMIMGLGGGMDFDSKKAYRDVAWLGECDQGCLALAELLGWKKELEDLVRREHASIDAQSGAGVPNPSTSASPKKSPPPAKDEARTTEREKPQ

[2] = molecular target: T2, SIRT1 (Homo sapiens, UniProt Q96EB6); test: SIRT1 deacetylation reaction, recombinant protein; assay type: biochemical; conditions: deacetylase activity, SD always ≤10%
T2 sequence (Q96EB6 1-747): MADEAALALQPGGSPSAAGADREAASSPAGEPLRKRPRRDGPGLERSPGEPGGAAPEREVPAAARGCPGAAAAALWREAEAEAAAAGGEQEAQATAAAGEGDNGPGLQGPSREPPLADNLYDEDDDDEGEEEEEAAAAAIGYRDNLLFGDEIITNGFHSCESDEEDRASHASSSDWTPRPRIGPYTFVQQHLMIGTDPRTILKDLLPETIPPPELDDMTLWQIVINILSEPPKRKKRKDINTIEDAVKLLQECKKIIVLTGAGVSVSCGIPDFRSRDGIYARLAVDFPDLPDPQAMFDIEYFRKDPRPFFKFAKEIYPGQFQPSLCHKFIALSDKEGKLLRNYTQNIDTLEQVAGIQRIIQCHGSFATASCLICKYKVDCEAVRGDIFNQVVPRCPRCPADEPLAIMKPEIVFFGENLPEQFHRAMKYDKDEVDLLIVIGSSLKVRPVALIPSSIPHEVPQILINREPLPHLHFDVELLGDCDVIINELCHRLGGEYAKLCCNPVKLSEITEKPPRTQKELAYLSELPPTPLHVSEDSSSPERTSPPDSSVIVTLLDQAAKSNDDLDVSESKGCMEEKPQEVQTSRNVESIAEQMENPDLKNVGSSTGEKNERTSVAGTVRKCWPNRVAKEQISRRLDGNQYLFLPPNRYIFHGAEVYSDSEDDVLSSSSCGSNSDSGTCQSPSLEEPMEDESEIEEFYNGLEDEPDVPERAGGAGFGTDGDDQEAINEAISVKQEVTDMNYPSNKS
Protocol: (§1) Next, the selectivity of the compounds for SIRT2 against other sirtuins was also determined. The compounds were tested at the final concentration of 150 µM in the deacetylation reaction of SIRT1, SIRT3 and SIRT6, with this last one being promoted by the addition of the SIRT6 activator MDL-800 and also in the depalmitoylation reaction of SIRT6.

[3] = molecular target: T3, SIRT3 (Homo sapiens, UniProt Q9NTG7); test: SIRT3 deacetylation reaction, recombinant protein; assay type: biochemical; conditions: deacetylase activity, SD always ≤10%
T3 sequence (Q9NTG7 1-399): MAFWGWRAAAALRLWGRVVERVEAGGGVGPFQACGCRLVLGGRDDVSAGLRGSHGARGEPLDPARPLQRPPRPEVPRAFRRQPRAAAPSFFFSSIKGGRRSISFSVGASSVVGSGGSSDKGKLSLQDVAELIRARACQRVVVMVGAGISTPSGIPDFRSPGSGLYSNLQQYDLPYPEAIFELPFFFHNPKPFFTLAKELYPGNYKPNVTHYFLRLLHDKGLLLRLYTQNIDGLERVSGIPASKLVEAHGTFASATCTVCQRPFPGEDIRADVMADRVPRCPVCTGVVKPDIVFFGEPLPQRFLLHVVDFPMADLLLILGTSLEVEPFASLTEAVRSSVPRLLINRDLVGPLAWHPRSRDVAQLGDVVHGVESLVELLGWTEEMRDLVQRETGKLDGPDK
Protocol: as §1

[4] = molecular target: T4, SIRT6 (Homo sapiens, UniProt Q8N6T7); test: SIRT6 deacetylation reaction promoted by the SIRT6 activator MDL-800, recombinant protein; assay type: biochemical; conditions: with SIRT6 activator MDL-800, SD always ≤10%; for inhibition at 150 µM: read-out: % Inhibition SIRT6 (Deacetylase); for % Inhibition SIRT6 (Deacetylase): 150 µM
T4 sequence (Q8N6T7 whole entry, species assumed): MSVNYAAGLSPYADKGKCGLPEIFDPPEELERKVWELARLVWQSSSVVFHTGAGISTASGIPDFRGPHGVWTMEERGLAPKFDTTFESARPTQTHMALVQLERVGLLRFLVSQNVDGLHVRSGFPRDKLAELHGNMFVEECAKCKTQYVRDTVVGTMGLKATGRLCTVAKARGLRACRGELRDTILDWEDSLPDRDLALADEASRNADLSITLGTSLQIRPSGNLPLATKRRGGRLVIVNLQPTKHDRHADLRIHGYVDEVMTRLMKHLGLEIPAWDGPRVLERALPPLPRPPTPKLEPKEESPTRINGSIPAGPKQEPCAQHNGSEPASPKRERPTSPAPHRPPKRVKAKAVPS
Protocol: as §1

[5] = molecular target: T4, SIRT6; test: SIRT6 depalmitoylation reaction (H3K9Palm), recombinant protein; assay type: biochemical; conditions: 150 µM, SD always ≤10%
Protocol: as §1

[6] = molecular target: T1, SIRT2; test: SIRT2 deacetylase activity, recombinant SIRT2 with acetylated peptide H3K9Ac and NAD+; conditions: for inhibition at 150 µM: read-out: % Inhibition SIRT2 (at 150 μM)
Protocol: The effect of urea derivatives on SIRT2 deacetylase activity was evaluated upon incubation of recombinant SIRT2 with an acetylated peptide (H3K9Ac, a peptide acetylated on Lys 9) and the co-substrate NAD^+.

[7] = test system: acetylation of α-tubulin in SCC13 cells; test: Western blot of α-tubulin acetylation (endogenous SIRT2 inhibition) in SCC13 cells; assay type: cell-based; conditions: 5 μM, 48 h, Western blot normalized to total α-tubulin
Protocol: To confirm that the effect of 5a on cell viability was due to its ability to inhibit the endogenous SIRT2, Western blot analyses were performed to quantify the level of acetylation of α-tubulin, a direct substrate of SIRT2 enzymatic activity.
SCC13 cells (3 × 10^5) were seeded in 60 mm Petri dishes and left to adhere overnight. The day after, the medium was replaced with a medium containing 5a at a final concentration of 5 µM or the respective amount of DMSO vehicle. After 48 h, the medium was removed, and cells were washed with PBS and lysed by scraping with 100 µL of lysis buffer (25 mM Tris-HCl, pH 7.8; 2 mM DTT; 2 mM EDTA, 10% glycerol; 1% Triton® X-100). The lysate was clarified by centrifugation, and the protein concentration was measured using the Bradford assay. Twenty µg of proteins were loaded on a 10% polyacrylamide gel and then transferred to a nitrocellulose membrane. The membrane was saturated with 5% skim milk powder solution in TBS-Tween 0.05%. To determine the acetylation of alpha-tubulin, membranes were incubated with an anti-acetyl-alpha-tubulin antibody (#5335, Cell Signaling Technology, Danvers, MA, USA), whose signal was normalized on the total amount of alpha-tubulin (#2125, Cell Signaling Technology).

[8] = Table S1, ref [2] Schiedel et al., J. Med. Chem. 2016, read-out: IC50 of SIRT2 inhibition (Table S1)
[9] = Table S2, SIRT2 inhibition of SirReal2 analogues, read-out: IC50 (Table S2)
[10] = SirReal2 analogs, read-out: SIRT2 IC50

Compound: Cc1cc(C)nc(SCC(=O)Nc2nnc(Cc3ccc(Br)cc3)s2)n1 [Compound 23]
IC50 [1, 8]: 168 µM

Compound: Cc1cc(C)nc(SC(C)C(=O)Nc2ncc(Cc3cccc4ccccc34)s2)n1 (centres unmarked) [Compound 12]
IC50 [1, 8]: 0.3 µM
IC50 [1, 9]: 0.26 µM

inhibition at 150 µM [2]: 99%
inhibition at 150 µM [3]: 23%
inhibition at 150 µM [4]: 15%
% Inhibition SIRT6 (Depalmiotoylase) [5]: ni
IC50 [6]: 108 ± 4 µM
inhibition at 150 µM [6]: 100 ± 4%
Compound: Cc1sc(NC(=O)NCc2ccccc2)nc1-c1ccc(Br)cc1 [Compound 3d, 1-benzyl-3-(4-(4-bromophenyl)-5-methylthiazol-2-yl)urea]

Compound: CCOC(=O)c1sc(N)nc1-c1ccc(Br)cc1 [Compound 4]
IC50 [1, 8]: 3.4 µM

Compound: Cc1cc(C)nc(SCC(=O)Nc2nnc(C(F)(F)F)s2)n1 [Compound 21]
IC50 [1, 10]: 503 µM

Compound: CCOc1ccc2nc(NC(=O)CSc3nc(C)cc(C)n3)sc2c1 [Compound 25]
IC50 [1, 8]: 207 µM
IC50 [1, 9]: 207 µM

Compound: Cc1cc(C)nc(SCC(=O)Nc2ncc(C(=O)Nc3cccc4ccccc34)s2)n1 [Compound 9]
IC50 [1, 8]: 33 µM

Compound: Cc1cc(C)cc(SCC(=O)Nc2ncc(Cc3cccc4ccccc34)s2)c1 [Compound 8]
IC50 [1, 10]: 143 to 207 µM
IC50 [1, 8]: 207 µM

inhibition at 150 µM [2]: 92%
inhibition at 150 µM [3]: 24%
% Inhibition SIRT6 (Deacetylase) [4]: ni
% Inhibition SIRT6 (Depalmiotoylase) [5]: ni
inhibition at 150 µM [6]: 93 ± 4%
Compound: CCOC(=O)c1sc(NC(=O)NCc2ccccc2)nc1-c1ccc(Br)cc1 [Compound 5d, Ethyl 2-(3-benzylureido)-4-(4-bromophenyl)thiazole-5-carboxylate]

Compound: Cc1cc(C)nc(SCC(=O)Nc2nnc(Cc3ccc(Cl)cc3)s2)n1 [Compound 22]
IC50 [1, 8]: 30.9 µM

Compound: O=C(CSc1ncccn1)Nc1ncc(Cc2cccc3ccccc23)s1 [Compound 16]
IC50 [1, 8]: 2.3 µM
IC50 [1, 9]: 2.34 µM

Compound: CCCc1cc(O)nc(SCC(=O)Nc2ncc(Cc3cccc4ccccc34)s2)n1 [Compound 20]
IC50 [1, 8]: 127 µM
IC50 [1, 9]: 127 µM

inhibition at 150 µM [2]: 86%
inhibition at 150 µM [3]: 6%
inhibition at 150 µM [4]: 42%
% Inhibition SIRT6 (Depalmiotoylase) [5]: ni
IC50 [6]: 37 ± 2 µM
inhibition at 150 µM [6]: 100 ± 5%
Compound: CC(=O)c1cccc(NC(=O)Nc2nc(-c3ccc(Br)cc3)c(C)s2)c1 [Compound 3a, 1-(3-acetylphenyl)-3-(4-(4-bromophenyl)-5-methylthiazol-2-yl)urea]

Compound: N#C/C(=C\c1ccc(-c2cc(Cl)ccc2Cl)o1)C(=O)Nc1cccc2ncccc12 [AGK2, reference compound]
level of α-tubulin acetylation vs control cells [7]: increased levels of alpha-tubulin acetylation

Compound: Cc1cc(C)nc(SCC(=O)Nc2nnc(Cc3cccc4ccccc34)s2)n1 [Compound 24]
IC50 [1, 8]: 1.9 µM
IC50 [1, 9]: 1.89 µM

Compound: CCOc1cccc(Cc2cnc(NC(=O)CSc3nc(C)cc(C)n3)s2)c1 [Compound 5]
IC50 [1, 8]: 1.3 µM
IC50 [1, 9]: 1.33 µM

Compound: Cc1cc(C)nc(SCC(=O)Nc2ncc(Cc3cccc4ccc(Br)cc34)s2)n1 [Compound 14]
IC50 [1, 10]: 0.21 µM
IC50 [1, 8]: 0.2 µM

inhibition at 150 µM [2]: 100%
inhibition at 150 µM [3]: 20%
inhibition at 150 µM [4]: 7%
% Inhibition SIRT6 (Depalmiotoylase) [5]: ni
IC50 [6]: 26 ± 4 µM
inhibition at 150 µM [6]: 96 ± 6%
Compound: CSc1cccc(NC(=O)Nc2nc(-c3ccc(Br)cc3)c(C)s2)c1 [Compound 3c, 1-(4-(4-bromophenyl)-5-methylthiazol-2-yl)-3-(3-(methylthio)phenyl)urea]

Compound: O=C(CSc1cccc(O)c1)Nc1ncc(Cc2cccc3ccccc23)s1 [Compound 7]
IC50 [1, 10]: 143 to 207 µM
IC50 [1, 8]: 143 µM

Compound: CCc1cc(CC)nc(SCC(=O)Nc2ncc(Cc3cccc4ccccc34)s2)n1 [Compound 17]
IC50 [1, 8]: 45.6 µM

Compound: Cc1cc(C)nc(SCC(=O)Nc2ncc(Cc3cccc4ccc(Cl)cc34)s2)n1 [Compound 10]
IC50 [1, 8]: 0.2 µM
IC50 [1, 9]: 0.18 µM

Compound: Cc1nc(SCC(=O)Nc2ncc(Cc3cccc4ccccc34)s2)nc(C)c1C [Compound 18]
IC50 [1, 8]: 15 µM
IC50 [1, 9]: 15 µM

Compound: Cc1sc(N)nc1-c1ccc(Br)cc1 [Compound 2]
IC50 [1, 8]: 16.8 µM

Compound: Cc1cc(C)nc(SCC(=O)Nc2ncc(Cc3c(C)ccc4ccccc34)s2)n1 [Compound 13]
IC50 [1, 8]: 0.3 µM
IC50 [1, 9]: 0.31 µM

Compound: Cc1cc(C)nc(SC(C)C(=O)Nc2ncc(Cc3cccc4ccccc34)s2)n1 (centres unmarked) [Compound 11]
IC50 [1, 8]: 9.8 µM
IC50 [1, 9]: 9.77 µM

Compound: CC(Br)C(=O)c1ccc(Br)cc1 (centres unmarked) [Compound 1]
IC50 ([1]; read-out: IC50 (Table S2), Table S2, SIRT2 inhibition of SirReal2 analogues): 3.75 µM
IC50 ([1]; read-out: IC50 of SIRT2 inhibition (Table S1), Table S1, ref [2] Schiedel et al., J. Med. Chem. 2016): 3.8 µM

Compound: Cc1cc(C)nc(SCC(=O)Nc2ncc(Cc3ccc(-c4ccccc4)cc3)s2)n1 [Compound 6]
IC50 [1, 8]: 164 µM

inhibition at 150 µM [2]: 98%
inhibition at 150 µM [3]: 14%
% Inhibition SIRT6 (Deacetylase) [4]: ni
% Inhibition SIRT6 (Depalmiotoylase) [5]: ni
inhibition at 150 µM [6]: 93 ± 4%
Compound: COc1cccc(NC(=O)Nc2nc(-c3ccc(Br)cc3)c(C)s2)c1 [Compound 3b, 1-(4-(4-bromophenyl)-5-methylthiazol-2-yl)-3-(3-methoxyphenyl)urea]

Source: paper PMC11508362, “Discovery of Novel Thiazole-Based SIRT2 Inhibitors as Anticancer Agents: Molecular Modeling, Chemical Synthesis and Biological Assays” (International Journal of Molecular Sciences, 2024)
